We go through one sequence from patent US20030021796A1, “Method of enhancing T cell immunity by selection of antigen specific T cells” (priority 2001, published 2003).

“Also recorded” adds a separate entry of the source.

Test [1] has as its system TCR^TgTCRα^− lymph node cells. Kind of test: Proliferation of TCR transgenic lymph node cells stimulated with agonist peptides ([3H]thymidine incorporation). Type of test: cell-based, mouse. As for the experimental part:
Antigen response of TCR transgenic cells. Proliferation of lymph node cells isolated from TCR^TgTCRα^−and TCR^TgTCRα^−2-M^−Ii^− mice injected with the selecting peptide was measured in response to antigen. Response of the TCR^TgTCRα^− lymph node cells to different agonist peptides was measured by proliferation assay in a 96-well plate. 10^5 responder cells were stimulated with peptides presented by 5×10^5 irradiated C57BL6 splenocytes. Agonist peptides were used at concentrations of 0.01, 0.1, 0.5, 1.0, 2.5, 5.0, 10.0 and 20.0 μM. After 3 days cells were pulsed with 1 μCi of [^3H]thymidine added to each well and after 18 hours thymidine incorporation was measured. The sequences of peptides used were: PCC50V (AEGFSYTVANKNKGIT), PCC50L (AEGFSYTLANKNKGIT), PCC50V54A (AEGFSYTVANKAKGIT), PCC46A49A50V54A (AEGASYAVANKAKGIT), PCC50F54A (AEGFSYTFANKAKGIT), neutral ceramidase (AGFFQYTLYILASEG) and IgGVH (NADFKTPATLTVDKA). All peptides were synthesized by FMOC (fluorenyl methoxycarbonyl) chemistry and purified by reversed-phase high-performance liquid chromatography. To compare the antigenic response of CD4^+ TCR Tg cells lymph node cells were collected from TCR^TgTCRα^− and TCR^TgTCRα^−H2-M^−Ii^− mice two weeks after peptide injection. Single cell suspensions were prepared and CD4^+ cells were sorted using magnetic beads coated with anti CD4 antibodies (MACS). Purity of sorted cells exceeded 85%. 2×10^4 of purified CD4^+ cells were used in proliferation assay. Cells were stimulated with increasing concentrations of agonist peptides presented by APCs from wild type or H2-M^−Ii^− mice. IgGVH derived peptide (20 μM) was used as a negative control. Peptides were presented by irradiated splenocytes from a C57BL6 mouse. Proliferation was measured after 3 days by thymidine incorporation by pulsing cells with 1 μCi of [^3H] thymidine for 18 hours. Antagonism assay was done by prepulsing 5×10^5 antigen-presenting cells per well for 2 hr. with 5 μM of the antigenic peptide PCC50V54A, washing, and then exposing them to varying concentrations of peptide analogs with 2×10^4 purified CD4^+ TCR^Tg lymphocytes as responder cells (Lyons et al., 1996). For antagonism assays the percent of proliferation inhibition was calculated as 100-100*(thymidine incorporation in the presence of antagonist/thymidine incorporation in the absence of antagonist) (Lyons et al., 1996).

The next test relates to transgenic thymocytes. Nature of the test: Negative selection of transgenic thymocytes after i.p. peptide injection into TCR^TgTCRα^− mice (wild type A^b). Type of test: in vivo, mouse. The method, then: (§1) Flow cytometry analysis. Monoclonal antibodies specific for CD4(RM4-5), CD8(53-6.7), VβB8(F23.1), CD69(H1.2F3), CD44(IM7) and CD62L(MEL-14) were purchased from PharMingen (San Diego, Calif.) and used according to manufacturer's recommendations. Cells were analyzed using a FACSCalibur instrument (Becton Dickinson, San Jose, Calif.) and CellQuest software. For intracellular stain cells were first stained for CD4 and CD8, fixed in 2% paraformaldehyde, permeabilized in 0.1% Tween-20 and stained with anti-bcl-2 antibody (Pharmingen) according to manufacturer instruction.
(§2) Peptide injections and surgical procedures. TCR^TgTCRα^− and TCR^TgTCRαH2-M^−Ii^− were injected i.p. with agonist and control peptides dissolved in PBS. After indicated time mice were sacrificed, thymus and lymph nodes were collected and single cell suspensions were prepared. Pups were injected with 2 μg of peptide subcutaneously 12-24 hours after birth and thymi were transplanted into recipient mice 24 hours after injection. 5-8 week old TCR^TgTCRα^− H2-M^−Ii^− mice were used for thymectomy or as thymic transplant recipients. Surgical procedures were performed as described (Coligan et al., 1997). Mice were handled according with the institutional guidance.
Characterization of peptide agonists for the PCC specific transgenic αβTCR. To examine the role of peptides during positive selection in vivo, the inventors generated transgenic mice expressing class II restricted TCR specific for analogs of a pigeon cytochrome C peptide PCC(43-58) presented by the A molecule (Kraj et al., 2001). This receptor recognizes analogs of PCC(43-58) in which aspartic acid in position 50 is replaced by amino acids with neutral/hydrophobic (PCC50V, PCC50V54A, PCC46A49A50V54A, PCC50L, PCC50F) side chains (FIG. 6 and FIG. 9). The TCR transgenic mice were backcrossed to C57BL6 TCRα^− knockout mice so that almost all T cells expressing transgenic TCR become CD4^+ T cells (FIG. 4A and FIG. 10A). Initially, the inventors examined the capacity of agonist peptides to induce negative selection of transgenic T cells.

For the next test, the system named is lymph node cells. Kind of test: Repopulation of peripheral lymph nodes in peptide-injected TCR^TgTCRα^−H2-M^−Ii^− mice. It is filed as in vivo, mouse. The method, then: as §1, §2

For the sequence “AEGFSYTVANKAKGIT [PCC50V54A, analog of pigeon cytochrome C peptide PCC(43-58)]”, the “agonist potency / agonist properties” value in test [1] (in vitro stimulation of transgenic T cells) was “strong agonist”. The “recognition by the transgenic TCR / stimulation of transgenic cells” value in test [1] (peptides presented by irradiated C57BL6 splenocytes) is “recognizes; also recorded: stimulate”. In the test on transgenic thymocytes (20 μg i.p., 24 hours, thymus cellularity, annexin V, TUNNEL), the “negative selection of transgenic thymocytes” value was “does not induce negative selection; also recorded: did not induce negative selection”. For the same sequence, in the test with transgenic thymocytes (20 μg, TgTCRα^−H-2M^−Ii^− or TgTCRα^−A^bwt mice), the thymus cellularity entry is on record as “the same as in control mice”. In addition, the “negative selection / deletion of transgenic thymocytes” value in the test with transgenic thymocytes (200 μg/mouse i.p., 24 hours) was “induced profound negative selection; also recorded: induced profound deletion”. In addition, the “apoptotic cells by TUNNEL assay and annexin V staining” value in the test with transgenic thymocytes (after peptide injection, 20 μg) was “failed to demonstrate apoptotic cells”. Also, the “CD4^+ cells in peripheral lymph nodes” value in the test on lymph node cells (after i.p. injection, about two weeks) is “increase in the number of CD4^+ cells”. Moreover, the “phenotype of peripheral CD4^+ cells (CD44, CD62L)” value in the test with lymph node cells (mouse, in vivo) is reported as “had naïve phenotype”. In addition, the “total number of lymph node cells” value in the test on lymph node cells (two weeks after injection) is on record as 44.1×10^6±9.8.
